Laboratory results published in US20240246905A1 (University of Leicester, priority 2021, published 2024).
Values after ≈ are worked out from the molar mass of the structure shown.

What was measured:
[1] = tested on: C. neoformans H99; ATCC 208821; assay: Anti-fungal MIC (CO-ADD); type: cell-based; settings: Cryptococcus neoformans, ATCC208821, read-out: MIC
Description: (§1) Fungal strains were cultured for 3 days on Yeast Extract-Peptone Dextrose (YPD) agar at 30° C. A yeast suspension of 1×10^6 to 5×10^6 CFU/mL (as determined by OD530) was prepared from five colonies. […] All plates were covered and incubated at 35° C. for 36 hours without shaking. […] The absorbance was measured using a Biotek Multiflo Synergy HTX plate reader. In both cases, the percentage of growth inhibition was calculated for each well, using the negative control (media only) and positive control (fungi without inhibitors) on the same plate. […] Due to a higher variance in growth and inhibition, a lower threshold was applied to the data for C. neoformans. In addition, the maximal percentage of growth inhibition is reported as DMax, indicating any compounds with marginal activity.

C. tropicalis ATCC 750 = assay: Anti-fungal MIC (CO-ADD); type: cell-based; settings: Candida tropicalis, ATCC750, read-out: MIC
Description: as §1

[2] = tested on: C. deuterogattii ATCC 32609; assay: Anti-fungal MIC (CO-ADD); type: cell-based; settings: read-out: MIC
Description: as §1

C. glabrata ATCC 90030 = assay: Anti-fungal MIC (CO-ADD); type: cell-based; settings: Nakaseomyces glabratus, ATCC90030, read-out: MIC
Description: as §1

C. albicans ATCC 90028 = assay: Anti-fungal MIC (CO-ADD); type: cell-based; settings: Candida albicans, ATCC90028, read-out: MIC
Description: as §1

C. tropicalis ATCC 450 = assay: Anti-fungal MIC (CO-ADD); type: cell-based; settings: Candida tropicalis, ATCC450, read-out: MIC
Description: as §1

[3] = tested on: MRSA 252, MSSA 476, S. aureus 15981, P. aeruginosa PA01 and E. coli DH5α; assay: Disc diffusion primary screening, five strains (statements in words); type: cell-based; settings: 500 μg/mL
Description: As such, the minimum inhibition concentration (MICs) of biologically active compounds were further assessed using the broth dilution method against the S. aureus strains; MRSA 252 and MSSA 476 (Table 1). The results of both assays enabled key structural elements and functional groups required for the compounds to retain their antibiotic activity to be identified.
(§2) The antibiotic activity was determined using a Kirby-Bauer method according to Clinical Standard Laboratory Institute (CSLI) Guidelines (2017). Briefly, 180 μL of a 1 in 200 dilution (in LB or TSB) of overnight cultures of selected Gram negative and Gram positive bacteria were applied to an agar plate containing the solid growth medium, Mueller-Hinton agar (MHA). Sterile discs, inoculated with 50 μL of antibiotic, were first added to the agar plate before the plates were incubated for 24 hours at 37° C. Following incubation, the zone of inhibition (if it existed) was recorded.

MSSA 476 [4] = assay: Disc diffusion (Kirby-Bauer), zone of inhibition; type: cell-based, Staphylococcus aureus; settings: Staphylococcus aureus, 500 μg/mL, '/' = no zone, read-out: Zone of inhibition
Description: (§3) E. coli DH5α, P. aeruginosa PA01 and the 53 S. aureus strains were recovered from frozen (−80° C.) glycerol (15% v/v) stocks on Lysogeny agar (LA)—Gram negative and trypticase soy agar (TSA)—plates at 37° C. for 24 hours. Single colonies were placed in either 3 mL Lysogeny broth (LB)—Gram negative or trypticase soy broth (TSB)—Gram positive and incubated at 37° C., 250 rpm for 18 hours.
as §2

MRSA 252 [5] = assay: Disc diffusion (Kirby-Bauer), zone of inhibition; type: cell-based, Staphylococcus aureus; settings: Staphylococcus aureus, 500 μg/mL, '/' = no zone, read-out: Zone of inhibition
Description: as §3, §2

[6] = tested on: Pseudomonas aeruginosa PA01; assay: Disc diffusion (Kirby-Bauer), zone of inhibition; type: cell-based; settings: 500 μg/mL, '/' = no zone
Description: as §3, §2

[7] = tested on: Staphylococcus aureus 15981; assay: Disc diffusion (Kirby-Bauer), zone of inhibition; type: cell-based; settings: Staphylococcus aureus 15981; 500 μg/mL; '/' = no zone; read-out: Zone of inhibition
Description: as §3, §2

Escherichia coli DH5α = assay: Disc diffusion (Kirby-Bauer), zone of inhibition; type: cell-based; settings: Escherichia coli DH5α; 500 μg/mL; '/' = no zone; read-out: Zone of inhibition
Description: as §3, §2

red blood cells = assay: Hemolysis assay (CO-ADD); type: cell-based; settings: 32 μg/mL highest concentration tested
Description: A problem often encountered by emerging drugs is hemolysis, also known as drug-induced immune hemolytic anemia.

HEK293 cells = assay: Cytotoxicity assay, resazurin (CO-ADD); settings: HEK 293
Description: The cytotoxicity studies were performed by CO-ADD (The Community for Open Antimicrobial Drug Discovery), funded by the Wellcome trust (UK) and the University of Queensland, Australia.^(28) In this study, the compounds were screened against a human embryonic kidney cell line, HEK293, at a set concentration of 32 μg/mL.
DMEM supplemented with 10% FBS was used as growth media and the cells were incubated together with the compounds for 20 hours at 37° C. in 5% CO2.
Cytotoxicity (or cell viability) was measured by fluorescence, excitation: 560/10 nm, emission: 590/10 nm (F560/590), after addition of 5 μL of 25 μg/mL Resazurin (2.3 μg/mL final concentration) and after incubation for further 3 h at 37° C. in 5% CO2. The fluorescence intensity was measured using a Tecan M1000 Pro monochromator plate reader, using automatic gain calculation CC50 (concentration at 50% cytotoxicity) were calculated by curve fitting the inhibition values vs. log(concentration) using sigmoidal dose-response function, with variable fitting values for bottom, top and slope. The curve fitting was implemented using Pipeline Pilot's dose-response component.

MSSA 476 [8] = assay: MIC, broth micro-dilution; type: cell-based, Staphylococcus aureus; settings: Staphylococcus aureus, MSSA, read-out: MIC
Description: as §3
(§4) Antibiotic MIC's were determined by a broth micro-dilution method according to Clinical Standard Laboratory Institute (CSLI) Guidelines (2017). Briefly, 96-well microplates, each containing 195 μL of the 1:2 dilution antibiotic in TSB, were inoculated with 5 μL of overnight cultured bacteria, diluted to give a starting bacterial concentration of 5×10^5 CFU/mL. The optical density of each well inoculated was recorded every 12 minutes over an 18 hour period at 37° C. The data from this was plotted in OriginPro8 (OriginLab) and sigmoidal curves fitted using the dose response function. Fitted values for each curve were used to calculate the MIC.

MRSA 252 [9] = assay: MIC, broth micro-dilution; type: cell-based, Staphylococcus aureus; settings: Staphylococcus aureus, read-out: MIC
Description: as §3, §4

Galleria mellonella = assay: Systemic toxicity, Galleria mellonella survival; settings: n = 10, injection of 500 μg/mL
Description: Galleria mellonella wax worms purchased from www.livefoods.co.uk were inoculated with 10 μL of a series of dilutions of the antibiotics synthesised in-house. The antibiotic concentrations chosen for this study were the following: 1000 μg/mL, 500 μg/mL, 250 μg/mL, 125 μg/mL and 31.25 μg/mL. Each dilution was injected into 10 individual wax worms through their last pro-leg. The injected wax worms were stored at 25° C. for 5 days. The cytotoxicity was determined as the percentage survival rate of Galleria mellonella Wax worms after 5 days inoculation.

Manduca sexta = assay: Systemic toxicity, Manduca sexta survival and mass growth; type: in vivo; settings: 1% solution, by 48 hours
Description: The use of Galleria for evaluating systemic toxicity study provided a straightforward method for screening any immediate toxicity issues associated with the lead compounds. One problem encountered with this model is the complications of obtaining quantitative results since only live/dead outcomes can be recorded. As an alternative and quantitative approach for systemic toxicity, it was decided to use a new model using Manduca sexta as the subject, replacing the much smaller and difficult to handle, Galleria mellonella. The Manduca sexta assay allows for the mass change of the larvae to be measured over hours/days, thus giving information not only on survival but also on the organisms' fitness^(26) Promisingly, the 72 hour assay performed at concentrations of 1 mg/mL on the selected lead compounds gave identical results to those obtained using the Galleria infection model, indicating no apparent toxicity issues for the compounds. […] As a […] control, the Manduca were injected with a 1% solution of NaN3. […]
[…] The mass of each hornworm was measured before and up to 72 hours after injection at set 24 hour intervals. The systemic toxicity was determined as the percentage survival and mass growth relative to the positive control at the pre-determined set intervals.

MRSA 252 [10] = assay: Resistance testing by serial passaging; type: cell-based, S. aureus; settings: 18 serial passage cycles
Description: Next a serial passage study was undertaken in order to elucidate the speed at which target bacteria might either evolve resistance or select for persister cells within that population following exposure to compound 36.
For resistance development by serial passaging, 5 μL of overnight cultured MRSA 252 cells were added to individual wells in a 96-well plate containing 195 μL of TSB supplemented with a range of antibiotic concentrations and incubated at 37° C. for 18 hours. Ofloxacin served as a control. Wells where bacterial growth was visible after 18 hours were plated on TSA plates and incubated at 37° C. for a further 18 hours. Single colonies obtained from the overnight cultured bacteria were then inoculated into fresh TSB medium, incubated at 37° C. for 18 hours before being used in the next cycle of the resistance testing. This process continued for 18 cycles.

[11] = tested on: methicillin resistant Staphylococcus aureus strains; type: cell-based; settings: clinically relevant methicillin resistant Staphylococcus aureus strains
insect phenol-oxidases = assay: Inhibition of insect phenol-oxidases; type: biochemical

Row | Molecule | antibiotic activity in disc diffusion assays (in words) [3] | zone of inhibition at 500 µg/mL (MSSA 476 [4]) | zone of inhibition at 500 µg/mL (MRSA 252 [5]) | zone of inhibition at 500 µg/mL [6] | zone of inhibition at 500 µg/mL [7] | MIC (MSSA 476 [8]) | MIC (MRSA 252 [9]) | antibiotic activity (in words) [11] | also measured
1 | [C-]#[N+]/C=C/c1ccccc1/C=C/c1ccccc1 [Compound 38, 1-((E)-2-Isocyanovinyl)-2-((E)-styryl)benzene] | retained antibiotic activity | 30 mm | 30 mm | 26 mm | 28 mm | 3 µg/mL (≈ 13 µM) | 5 µg/mL (≈ 21.6 µM) | – | MIC [1]: 4 µg/mL; MIC (C. tropicalis ATCC 750): 8 to 16 µg/mL; MIC [2]: 2 µg/mL; MIC (C. glabrata ATCC 90030): > 32 µg/mL; MIC (C. albicans ATCC 90028): 2 to 4 µg/mL; MIC (C. tropicalis ATCC 450): 2 µg/mL; zone of inhibition at 500 µg/mL (Escherichia coli DH5α): 28 mm; Hemolytic activity (HC10) (red blood cells): >32 µg/mL; Concentration toxic to HEK 293 cells (HEK293 cells): >32000 ng/mL
2 | [C-]#[N+]/C=C/c1ccc(NC(C)=O)cc1/C=C/c1ccncc1 [Compound 44, N-(4-((E)-2-Isocyanovinyl)-3-((E)-2-(pyridin-4-yl)vinyl)phenyl)acetamide] | antibiotic activity against four of the strains | 28 mm | 28 mm | 26 mm | 30 mm | 46 µg/mL (≈ 159 µM) | 35 µg/mL (≈ 121 µM) | – | –
3 | [N-]=[N+]=[N-].[Na+] [Negative Control (NaN3), NaN3, reference compound] | – | – | – | – | – | – | – | – | % survival after 5 days (Galleria mellonella): 0%; survival of Manduca sexta (Manduca sexta): had all died
4 | CC1COc2c(N3CCN(C)CC3)c(F)cc3c(=O)c(C(=O)O)cn1c23 (centres unmarked) [ofloxacin, reference compound] | – | – | – | – | – | – | – | – | increase in MIC after serial passage (MRSA 252 [10]): greater than 10 fold
5 | Byelyankacin | – | – | – | – | – | – | – | good antibiotic activity | inhibition of insect phenol-oxidases (in words) (insect phenol-oxidases): inhibitor of insect phenol-oxidases
6 | phenol vinyl isocyanide [(E)-4] | – | – | – | – | – | – | – | good antibiotic activity | –
